Where “and” joins values, the source holds several entries; their conditions need not be identical. Equal entries are not always repeated. Where two headings read alike, the source gives them in different places.
Key:
MSPa [1] = target: T1, MSPa (Pseudomonas aeruginosa, UniProt Q9I636); test: Isothermal titration calorimetry, MSPa
Protocol: Protein samples were dialyzed (2 × 1 L) in a D-tube dialyzer (Merck, Watford, UK) for 3 h in 25 mM Tris-HCl, 100 mM NaCl, and 0.1 mM TCEP (pH 7.5). […] The syringe and the cell both contained a final concentration of 0.1% DMSO. The injection parameters for MSPa were: Reference power 15 µcal/sec, initial injection of 3 µL (3.6 sec per injection) with subsequent injections of 10 µL (12 sec per injection). Injections were spaced by 150 sec with a filter period of 2 sec. The injection parameters for ICLPa were: Reference power 15 µcal/sec, initial injection of 3 µL (3.6 sec per injection) with subsequent injections of 8 µL (10 sec per injection). Injections were spaced by 170 sec with a filter period of 2 sec. Data were analyzed in NITPIC (NITPIC, Bethesda, MD, USA) [31] for baseline calculations and then fit for thermodynamic parameters using the OneSite model in Origin 7.0 software (Origin Software Solutions, Bristol, UK). Each titration was carried out in duplicate.

MSPa [2] = target: T1, MSPa; test: Kinetic mode of action on MSPa; type: biochemical; set-up: made in house
Protocol: (§1) The enzymatic activity of purified ICLPa and MSPa was assayed essentially as previously described. Compounds were added to the reaction mixtures (minus substrates) and incubated for 5 min at 37 °C. The enzyme concentration in the reaction mixtures was 170 nM for ICL and 25 nM for MS (based on the concentration of the monomer in each case). […] The reactions were initiated by the addition of pH-adjusted substrates, and the initial rates were recorded as A324 nm (for ICLPa) and A412 nm (for MSPa) using a Biospectrometer (Eppendorf, Stevenage, UK). Substrate turnover was calculated from the molar extinction coefficient of the assay products: Glyoxylate-phenylhydrazone (16,800/M/cm) for ICLPa and 2-nitro-5-thiobenzoic acid (14,150/M/cm) for MSPa.
(§2) The mode of action of SB002 on MSPa and ICLPa was determined by titrating the respective substrates of each enzyme in the presence of three fixed concentrations of SB002 (selected to lie around the measured IC50 value) and measuring the reaction rates as outlined in Section 4.3. Double-reciprocal plots and best-fit inhibition models (GraphPad Prism v. 7.04) were used to assess the mode of inhibition. Inhibition constants were calculated using GraphPad Prism v. 7.04 (GraphPad Software, Inc., La Jolla, CA, USA). Each data point represents the mean ± SD for three independent replicates.

ICLPa = target: T2, ICLPa (Pseudomonas aeruginosa, UniProt Q9I0K4); test: Kinetic mode of action on ICLPa; type: biochemical; set-up: made in house; conditions: isocitrate titrated; uncompetitive model, GraphPad Prism
T2 sequence (Q9I0K4 1-531): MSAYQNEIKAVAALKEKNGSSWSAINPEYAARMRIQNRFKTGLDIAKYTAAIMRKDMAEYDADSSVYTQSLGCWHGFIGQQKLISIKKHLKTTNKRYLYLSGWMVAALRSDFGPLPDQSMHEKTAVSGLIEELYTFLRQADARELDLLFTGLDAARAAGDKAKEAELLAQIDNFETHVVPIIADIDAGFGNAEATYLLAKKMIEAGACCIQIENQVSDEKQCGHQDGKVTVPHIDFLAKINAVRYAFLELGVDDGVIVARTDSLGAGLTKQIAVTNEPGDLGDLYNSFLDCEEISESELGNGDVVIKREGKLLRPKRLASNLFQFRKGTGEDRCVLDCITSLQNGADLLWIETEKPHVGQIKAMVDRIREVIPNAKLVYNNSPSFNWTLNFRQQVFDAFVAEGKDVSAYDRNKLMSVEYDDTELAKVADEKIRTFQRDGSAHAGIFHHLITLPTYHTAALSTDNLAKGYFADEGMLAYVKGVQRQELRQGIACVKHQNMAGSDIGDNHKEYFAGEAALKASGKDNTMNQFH
Protocol: as §1, §2

P. aeruginosa = test system: P. aeruginosa; set-up: method as in Fahnoe et al. [13]; conditions: ref Fahnoe et al. [13], cited from earlier work
[3] = CytoTox 96 LDH release cytotoxicity assay, U937; type: cell-based, human; conditions: human; U937 cells, LDH release
Protocol: (§3) The CytoTox 96® nonradioactive cytotoxicity assay (Promega, Madison, WI, USA) was performed to determine the number of cells affected by necrosis measuring LDH release. A U937 cell suspension (5 × 10^5 cells/mL) was prepared, and 99.5 µL of this suspension were added to the wells of clear, sterile, 96-well, U-bottomed plates (Greiner, Dungannon, UK). The test compounds (0.5 µL of a 200 × concentrated stock) or 0.5% DMSO (control) were added to each well, and the plates were shaken for 1 min at 100 rpm, followed by 3.5 h at 37 °C with 5% CO2. At this point, CytoTox 96® 10× lysis solution was added to the wells reserved for total lysis. These samples represented the LDH released following complete cell lysis. After 30 min, 50 µL of supernatant from each test well and total lysis well was transferred to new 96-well plates (Thermo Fisher Scientific, Bishop’s Stortford, UK). Prethawed CytoTox 96® buffer was mixed with the CytoTox 96® substrate, and 50 µL were added into each well. The plates were incubated for 10 min in darkness at 25 °C. CytoTox 96® stop buffer (50 µL) was added, and the plates were incubated for a further 15 min. LDH release was quantified by measuring A492 nm in a CLARIOstar® multimode microplate reader (BMG Labtech, Aylesbury, UK).

U937 cells = test: CytoTox 96 LDH release cytotoxicity assay, U937; type: cell-based, human; conditions: IC50 cytotoxicity/IC50 P. aeruginosa growth inhibition in M9 acetate
Protocol: as §3

[4] = CellTiter-Glo luminescent cell viability assay (ATP), A-375; type: cell-based, human; conditions: human; A-375 cells, 48 h, ATP luminescence; read-out: Cytotoxicity IC50 A-375
Protocol: (§4) The number of viable cells based on ATP quantification was determined using the CellTiter-Glo® luminescent cell viability assay (Promega, Madison, WI, USA, lot no. 0000200446). Briefly, cells were seeded into white, flat-bottomed, sterile 96-well plates (PerkinElmer, Beaconsfield, UK) and incubated for 24 h. For A-375 cells, we used 10,000 cells/well, and for H27 cells, we used 7500 cells/well. Test compounds were diluted in assay medium (Glutamax DMEM with 5% FBS (Gibco)) and added to the plates in two-fold dilutions starting at 100 µM. Negative controls (0.5% DMSO) and positive controls (camptothecin, 1.6 µM for the A-375 cells and 50 µM for the H27 cells) were also included, and the plates were incubated for an additional 48 h (95% humidity, 5% CO2 at 37 °C). After incubation, the cells were washed with PBS. To each well, we then added 50 µL of assay medium plus 50 µL of CellTiter-Glo® reagent. The samples were then shaken for 2 min at 100 rpm at 25 °C, followed by a further 10 min at 25 °C to stabilize the luminescence signal. Luminescence was measured using a VarioSkan LUX multimode microplate reader (Thermo Fisher Scientific, Vantaa, Finland).

A-375 cells = test: as above; type: cell-based, human; conditions: IC50 cytotoxicity/IC50 P. aeruginosa growth inhibition in M9 acetate
Protocol: as §4

[5] = ITC, 25 °C, reverse titration, MSPa

T1 sequence (Q9I636 whole entry): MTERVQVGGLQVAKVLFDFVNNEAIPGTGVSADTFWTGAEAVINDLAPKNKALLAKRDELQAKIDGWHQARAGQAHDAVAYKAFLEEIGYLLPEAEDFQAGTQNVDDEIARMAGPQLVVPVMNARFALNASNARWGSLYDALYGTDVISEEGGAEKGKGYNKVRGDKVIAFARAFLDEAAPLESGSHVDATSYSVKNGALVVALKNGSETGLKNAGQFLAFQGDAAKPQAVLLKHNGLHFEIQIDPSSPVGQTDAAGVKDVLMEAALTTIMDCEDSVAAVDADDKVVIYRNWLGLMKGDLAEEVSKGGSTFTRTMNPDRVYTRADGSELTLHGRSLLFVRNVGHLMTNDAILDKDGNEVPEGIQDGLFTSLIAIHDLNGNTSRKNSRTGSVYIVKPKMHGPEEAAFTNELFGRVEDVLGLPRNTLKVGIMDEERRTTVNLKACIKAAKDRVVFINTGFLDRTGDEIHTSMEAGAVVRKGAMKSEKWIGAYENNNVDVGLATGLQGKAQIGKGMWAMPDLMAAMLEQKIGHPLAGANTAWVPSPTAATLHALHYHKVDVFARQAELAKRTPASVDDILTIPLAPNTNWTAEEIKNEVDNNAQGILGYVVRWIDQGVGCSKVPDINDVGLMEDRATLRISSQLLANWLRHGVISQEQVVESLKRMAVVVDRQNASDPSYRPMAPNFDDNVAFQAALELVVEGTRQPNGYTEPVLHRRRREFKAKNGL

In the case of `CC(C)(C)OC(=O)/N=C(\NC(=O)OC(C)(C)C)Nc1cc(Cl)ccn1` [SB002], the Kd (MSPa [1]) is reported as 0.0286 ± 0.0016 µM, the Ka (MSPa [1]; [5]) is reported as 3.56e+07 ± 1.86e+06 M and the ΔG (MSPa [1]; [5]) is reported as −10.31 ± 1.79×10^−3 kcal/mol. The ΔH (MSPa [1]; [5]) was −0.47 ± 1.79×10^−3 kcal/mol, the “−TΔS” value (MSPa [1]; [5]) was -9.84 kcal/mol and the “n (binding sites)” value (MSPa [1]; ITC, per monomeric unit of MSPa) was 0.35 and 0.35 ± 8.41 × 10^−4. For the same molecule, the Ki (MSPa [2]) was 4.5 µM, the “Mode of inhibition of MSPa with respect to acetyl-CoA” value (MSPa [2]; acetyl-CoA varied, saturating (200 µM) glyoxylate) was “competitive mode of inhibition” and the “Ki’ (binding to the ES complex), MSPa” value (MSPa [2]; glyoxylate varied, 200 µM acetyl-CoA) was 3.9 µM. The “Mode of inhibition of MSPa with respect to glyoxylate” value (MSPa [2]; glyoxylate varied, saturating (200 µM) acetyl-CoA) was “uncompetitive inhibition at the lower inhibitor concentrations tested, and noncompetitive inhibition at the higher concentration of inhibitor”, the “Ki’ (inhibition constant for binding to the enzyme-substrate complex), ICLPa” value (ICLPa) was 21.3 µM and the MIC (P. aeruginosa; conversion of 8 μg/mL) was 21.6 µM. The MIC (P. aeruginosa) was 8 µg/mL, the IC50 at 3.5 h [3] was 18.2 µM and the “Therapeutic index U937” value (U937 cells) was 17 and 17.31.

With `CC(C)(C)OC(=O)/N=C(\NC(=O)OC(C)(C)C)Nc1cc(C#N)ccn1` [SB023] the IC50 at 48 h [4] was 106 µM, the “Therapeutic index A-375” value (A-375 cells) was 11.95 and the IC50 at 3.5 h [3] was 3220 µM. The “Therapeutic index U937” value (U937 cells) was 364 and 364.37.

Source: publication PMC7177833, “2-Aminopyridine Analogs Inhibit Both Enzymes of the Glyoxylate Shunt in Pseudomonas aeruginosa” (International Journal of Molecular Sciences, 2020)
